Measured values reported in patent publication US20070036793A1, “Methods for use of an lkb1/strad7mo25 complex” (priority 2003, published 2007).
“Also recorded” adds a separate entry of the source.

How the values were obtained:
[1] = system: acetyl-CoA carboxylase (ACC); assay: Phosphorylation of acetyl-CoA carboxylase at Ser-79 in HeLa cells expressing LKB1; format: cell-based, human; conditions: HeLa cells stably expressing wild type LKB1; 2 mM AICA riboside or 10 mM phenformin, 60 min
Procedure: FIG. 18: Restoration of the ability of AMPK to be activated by AICA riboside and phenformin in HeLa cells by expression of LKB1. Control HeLa cells (lanes 1, 2, 3), HeLa cells expressing wild type (WT) LKB1 (lanes 4, 5, 6) and kinase dead (D194A, KD) mutant LKB1 (lanes 7, 8, 9) were either left unstimulated or treated with 2 mM AICA riboside or 10 mM phenformin for 60 min and lysed. (A) Endogenous AMPK was immunoprecipitated from the cell extracts and assayed. (B) The cell lysates was immunoblotted with antibodies recognising AMPKα1 phosphorylated at Thr172 or total AMPKα1; the results were analysed using the LI-COR IR Odyssesy™ imager as described under Materials and Methods, and are expressed as a ratio of the two signals. (C) The cell lysates was analysed by Western blotting and the membranes probed with antibodies recognising ACC phosphorylated at Ser-79, or streptavidin to determine total […]. The results were analysed using the LI-COR IR imager as for (B).
To analyse phosphorylation of ACC, samples were analysed by SDS-PAGE, transferred to nitrocellulose (BioRad) and incubated in Odyssey™ Blocking buffer containing 0.2% Tween-20 for 1 h. […] The membranes were scanned in two different channels using the Odyssey™ IR imager, the results quantified using Odyssey™ software and expressed as a ratio of the signal obtained with the pACC antibody to that obtained with streptavidin. […]

LKB1 = target: T1, LKB1 (Mus musculus, UniProt Q9WTK7); assay: Activity of endogenous LKB1 immunoprecipitated from LKB1+/+ MEFs, LKBtide substrate; format: cell-based; conditions: 1 h
T1 construct: AMPKα1/a2 and LKB1 were immunoprecipitated from the cell lysates; endogenous in cells; host or cells: LKB1+/+ MEFs
T1 sequence (Q9WTK7 1-433 limits assumed): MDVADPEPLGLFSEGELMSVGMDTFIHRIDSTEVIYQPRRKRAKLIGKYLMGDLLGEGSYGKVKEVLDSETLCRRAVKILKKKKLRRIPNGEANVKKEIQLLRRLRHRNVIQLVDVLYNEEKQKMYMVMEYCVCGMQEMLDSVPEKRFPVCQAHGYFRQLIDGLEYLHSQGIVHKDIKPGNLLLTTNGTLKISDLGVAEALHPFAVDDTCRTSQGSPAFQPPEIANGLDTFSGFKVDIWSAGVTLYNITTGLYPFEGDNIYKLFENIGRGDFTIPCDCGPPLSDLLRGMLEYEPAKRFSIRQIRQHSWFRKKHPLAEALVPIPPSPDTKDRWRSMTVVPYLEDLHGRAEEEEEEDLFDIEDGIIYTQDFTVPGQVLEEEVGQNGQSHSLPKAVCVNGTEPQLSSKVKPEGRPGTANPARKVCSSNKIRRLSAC
T1 sequence (Q3UUJ4 whole entry partner): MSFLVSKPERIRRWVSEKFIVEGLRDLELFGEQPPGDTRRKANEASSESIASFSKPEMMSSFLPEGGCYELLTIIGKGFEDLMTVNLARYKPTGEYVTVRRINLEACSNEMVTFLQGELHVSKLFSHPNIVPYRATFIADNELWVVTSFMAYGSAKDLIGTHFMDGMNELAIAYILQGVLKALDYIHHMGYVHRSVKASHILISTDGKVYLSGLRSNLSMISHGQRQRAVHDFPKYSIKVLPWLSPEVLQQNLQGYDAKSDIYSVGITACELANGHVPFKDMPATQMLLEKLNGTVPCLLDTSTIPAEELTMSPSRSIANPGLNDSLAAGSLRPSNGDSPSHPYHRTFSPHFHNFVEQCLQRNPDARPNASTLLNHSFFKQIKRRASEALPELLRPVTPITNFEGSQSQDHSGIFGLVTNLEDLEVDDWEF
T1 sequence (Q06138 whole entry partner): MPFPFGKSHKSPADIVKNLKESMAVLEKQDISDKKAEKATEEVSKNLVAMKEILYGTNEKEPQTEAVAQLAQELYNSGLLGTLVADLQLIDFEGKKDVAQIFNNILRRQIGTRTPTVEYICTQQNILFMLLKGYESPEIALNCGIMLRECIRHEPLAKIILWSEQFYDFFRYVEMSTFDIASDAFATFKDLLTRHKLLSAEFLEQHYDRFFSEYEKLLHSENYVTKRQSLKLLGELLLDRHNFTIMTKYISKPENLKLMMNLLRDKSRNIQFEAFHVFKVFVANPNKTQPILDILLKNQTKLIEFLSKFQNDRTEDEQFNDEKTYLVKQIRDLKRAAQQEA
Procedure: FIG. 28. […] (A) LKB1^+/+ MEFs were either left untreated or stimulated with the indicated concentrations of phenformin (Phen) for 1 h. AMPKα1/a2 and LKB1 were immunoprecipitated from the cell lysates, and in vitro kinase activity towards the AMARA and LKBtide peptides respectively, were measured as described in Materials and Methods (Example 4). (B) To confirm equal expression of the kinases in each sample, cell lysates were subjected to SDS-PAGE and western blot analysis with the indicated antibodies. The phospho pT172 antibody (P-AMPK) recognises the phosphorylated T-loop of AMPKα1. […] AMPKα1 and the indicated AMPK-related kinases were immunoprecipitated from the cell lysates, and in vitro kinase activity towards the AMARA peptide measured as described in Materials and Methods. […]
Cell culture, stimulation and cell lysis. […] Protein concentrations were determined by the Bradford method with bovine serum albumin as the standard (Bradford, 1976).
0.1-1 mg Hela or MEF cell lysate protein was incubated at 4° C. for 1 h on a shaking platform with 5 μl of protein G-Sepharose conjugated to 5 μg of human LKB1 antibody. […] The p81 membranes were washed in phosphoric acid, and the incorporated radioactivity was measured by scintillation counting as described previously for MAP kinase (Alessi et al., 1995).

SMILES | phosphorylation of downstream target ACC (Ser-79) [1] | LKB1 activity (LKB1)
NC(=O)c1ncn([C@@H]2O[C@H](CO)[C@@H](O)[C@H]2O)c1N [AICA riboside, 5-aminoimidazole-4-carboxamide (AICA) riboside] | larger effect than phenformin; also recorded: restored | do not activate LKB1 directly
[H]/N=C(/N)N/C(=N/[H])NCCc1ccccc1 [phenformin] | restored | did not stimulate LKB1 activity
